Test results as given in patent publication US12685719B2, “Treatment of breast cancer with selective androgen receptor modulators and cyclin-dependent kinase 4/6 inhibitors” (UNIVERSITY OF TENNESSEE RESEARCH FOUNDATION, priority 2012, dated 2026).

What was measured:
Type in all cases: cell-based
AR = target: T1, AR (Homo sapiens, UniProt P10275); assay: AR transactivation (GRE-LUC luciferase) in MDA-MB-231 cells; conditions: cells transfected with AR and GRE-LUC
T1 construct: expressed in transfected cells; host or cells: MDA-MB-231
T1 sequence (P10275 whole entry): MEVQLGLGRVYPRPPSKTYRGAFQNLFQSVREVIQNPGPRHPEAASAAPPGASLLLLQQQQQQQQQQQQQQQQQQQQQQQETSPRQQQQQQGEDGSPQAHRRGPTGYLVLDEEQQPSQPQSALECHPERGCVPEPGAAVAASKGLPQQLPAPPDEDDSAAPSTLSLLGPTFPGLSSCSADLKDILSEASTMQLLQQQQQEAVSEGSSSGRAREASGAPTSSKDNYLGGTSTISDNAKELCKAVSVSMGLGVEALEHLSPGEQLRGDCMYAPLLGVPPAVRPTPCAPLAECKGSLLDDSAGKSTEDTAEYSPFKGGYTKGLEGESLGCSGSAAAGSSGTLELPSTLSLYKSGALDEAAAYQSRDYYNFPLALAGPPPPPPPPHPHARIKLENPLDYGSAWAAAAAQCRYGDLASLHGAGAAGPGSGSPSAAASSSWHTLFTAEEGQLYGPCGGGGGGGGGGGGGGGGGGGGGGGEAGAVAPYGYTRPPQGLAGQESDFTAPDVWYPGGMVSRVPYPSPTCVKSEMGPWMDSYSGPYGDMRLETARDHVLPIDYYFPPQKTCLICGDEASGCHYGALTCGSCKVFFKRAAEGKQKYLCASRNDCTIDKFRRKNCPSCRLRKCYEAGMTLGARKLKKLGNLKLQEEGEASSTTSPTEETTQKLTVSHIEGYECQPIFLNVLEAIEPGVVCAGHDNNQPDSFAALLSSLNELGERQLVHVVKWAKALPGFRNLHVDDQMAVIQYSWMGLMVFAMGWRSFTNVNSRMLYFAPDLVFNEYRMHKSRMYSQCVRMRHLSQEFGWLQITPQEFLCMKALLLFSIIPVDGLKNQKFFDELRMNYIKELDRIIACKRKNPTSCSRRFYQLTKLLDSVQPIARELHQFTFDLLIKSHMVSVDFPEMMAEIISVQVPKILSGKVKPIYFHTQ
Protocol: Though AR transactivation assay was performed in HEK-293 cells, the ability of ligands to function as agonists or antagonists depends on cellular microenvironment. […] The cells were treated 24 h after transfection and luciferase assay performed 48 h after transfection.

ER-α = target: T2, ER-α (Rattus norvegicus, UniProt P06211); assay: Transcriptional activation (luciferase) in HEK-293 cells, ER-α; parameters: activation of ER-α: dose or concentration left out as unconfirmed
T2 construct: expressed in transfected cells
T2 sequence (P06211 1-600): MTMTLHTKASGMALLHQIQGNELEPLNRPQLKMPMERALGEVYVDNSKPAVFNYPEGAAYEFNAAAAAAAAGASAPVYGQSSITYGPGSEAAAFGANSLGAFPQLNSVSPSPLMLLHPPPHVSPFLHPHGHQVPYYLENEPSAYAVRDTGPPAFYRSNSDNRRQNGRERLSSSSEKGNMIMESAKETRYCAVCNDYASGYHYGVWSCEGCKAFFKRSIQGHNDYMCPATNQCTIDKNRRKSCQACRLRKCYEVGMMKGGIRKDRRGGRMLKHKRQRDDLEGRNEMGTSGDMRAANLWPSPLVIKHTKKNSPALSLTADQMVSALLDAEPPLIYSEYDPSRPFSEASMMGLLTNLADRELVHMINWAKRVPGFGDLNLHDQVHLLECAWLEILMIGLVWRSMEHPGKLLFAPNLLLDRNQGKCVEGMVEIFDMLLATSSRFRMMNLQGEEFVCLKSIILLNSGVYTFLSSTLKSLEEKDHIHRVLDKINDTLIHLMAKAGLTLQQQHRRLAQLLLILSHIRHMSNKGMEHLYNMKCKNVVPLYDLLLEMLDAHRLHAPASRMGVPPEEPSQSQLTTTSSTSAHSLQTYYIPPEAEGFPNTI
Protocol: (§1) Rat GR, MR, PR, ER-α and ER-β were individually cloned into a pCR3.1 vector backbone. Sequencing was performed to verify the absence of any mutations. HEK-293 cells were plated at 90,000 cells per well of a 24 well plate in Dulbecco's Minimal Essential Media supplemented with 5% charcoal-stripped FBS. […] Luciferase assays were performed 48 h after transfection. Transcriptional activation values are represented as firefly luciferase normalized to Renilla luciferase.

ER-β = target: T3, ER-β (Rattus norvegicus, UniProt Q62986); assay: Transcriptional activation (luciferase) in HEK-293 cells, ER-β; parameters: activation of ER-β: dose or concentration left out as unconfirmed
T3 construct: expressed in transfected cells
T3 sequence (Q62986 whole entry): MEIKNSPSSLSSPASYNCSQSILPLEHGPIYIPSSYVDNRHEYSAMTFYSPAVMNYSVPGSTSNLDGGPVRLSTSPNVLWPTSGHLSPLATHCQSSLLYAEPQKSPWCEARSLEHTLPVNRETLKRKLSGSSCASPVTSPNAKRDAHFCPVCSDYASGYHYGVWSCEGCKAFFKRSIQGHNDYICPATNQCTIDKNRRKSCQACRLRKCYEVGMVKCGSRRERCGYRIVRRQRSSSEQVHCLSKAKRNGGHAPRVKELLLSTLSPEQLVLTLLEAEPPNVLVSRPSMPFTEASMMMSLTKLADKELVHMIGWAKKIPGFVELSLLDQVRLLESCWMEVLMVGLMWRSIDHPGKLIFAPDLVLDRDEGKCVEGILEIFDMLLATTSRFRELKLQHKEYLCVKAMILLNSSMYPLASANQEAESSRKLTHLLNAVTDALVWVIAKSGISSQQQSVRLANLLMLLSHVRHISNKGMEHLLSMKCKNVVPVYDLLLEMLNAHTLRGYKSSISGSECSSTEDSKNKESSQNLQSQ
Protocol: as §1, with “FBS. The cells were transfected using Lipofectamine (Invitrogen, Carlsbad, CA) with […] GRE-LUC for GR, MR and PR and ERE-LUC for ER-α and ER-β, 0.5 ng CMV-LUC (Renilla luciferase) and 12.5-25 ng of the respective expression vector for each receptor.” for “FBS.”

GR = target: T4, GR (Rattus norvegicus, UniProt P06536); assay: Transcriptional activation (luciferase) in HEK-293 cells, GR
T4 construct: expressed in transfected cells
T4 sequence (P06536 1-795): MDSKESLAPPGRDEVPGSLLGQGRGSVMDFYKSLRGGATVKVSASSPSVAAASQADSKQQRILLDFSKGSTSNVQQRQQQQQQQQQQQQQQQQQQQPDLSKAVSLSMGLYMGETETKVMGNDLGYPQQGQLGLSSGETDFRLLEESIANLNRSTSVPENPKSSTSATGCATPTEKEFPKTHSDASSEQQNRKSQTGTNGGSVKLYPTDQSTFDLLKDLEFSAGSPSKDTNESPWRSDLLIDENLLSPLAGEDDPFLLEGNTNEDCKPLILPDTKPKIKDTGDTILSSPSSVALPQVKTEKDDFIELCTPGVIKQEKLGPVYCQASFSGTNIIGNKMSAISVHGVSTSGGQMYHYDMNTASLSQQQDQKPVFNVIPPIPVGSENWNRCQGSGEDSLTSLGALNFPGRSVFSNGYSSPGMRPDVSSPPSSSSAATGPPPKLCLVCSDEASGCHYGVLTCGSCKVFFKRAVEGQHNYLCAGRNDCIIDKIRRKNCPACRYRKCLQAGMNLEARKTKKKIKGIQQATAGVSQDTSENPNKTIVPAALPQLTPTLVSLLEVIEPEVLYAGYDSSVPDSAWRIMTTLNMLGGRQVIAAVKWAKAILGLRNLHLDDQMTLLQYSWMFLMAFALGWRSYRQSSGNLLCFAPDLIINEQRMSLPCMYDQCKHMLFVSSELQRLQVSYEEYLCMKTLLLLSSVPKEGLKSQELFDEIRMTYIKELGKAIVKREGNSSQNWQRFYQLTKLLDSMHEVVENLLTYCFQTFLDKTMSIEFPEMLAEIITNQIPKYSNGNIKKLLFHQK
Protocol: as §1

[1] = test system: MDA-MB-231 breast cancer cells stably transfected with AR; assay: Proliferation of MDA-MB-231 cells stably transfected with AR (Coulter counter); conditions: 6 days
Protocol: MDA-MB-231 cells stably transfected with AR using lentivirus were treated with the indicated ligands for 6 days and the number of cells counted using Coulter counter.

[2] = agonist mode, highest tested concentration

Structure (SMILES)	AR agonist activity (transactivation) (AR)	receptor-mediated transactivation of ERα (stimulate or inhibit) (ER-α)	receptor-mediated transactivation of ERβ (stimulate or inhibit) (ER-β)	receptor-mediated transactivation of GR (stimulate or inhibit) (GR)	proliferation (number of cells) [1]	activation of ER-α (ER-α; [2])	17β-estradiol-induced ER-α activity (ER-α; antagonist mode)	activation of ER-β (ER-β; [2])	17β-estradiol-induced ER-β activity (ER-β; antagonist mode)	GR-mediated transactivation (GR; agonist mode, all the tested concentrations)	dexamethasone-induced GR-mediated transactivation (GR; antagonist mode)
C[C@](O)(COc1ccc(C#N)cc1)C(=O)Nc1ccc(C#N)c(C(F)(F)F)c1 [Formula IX, (S)-N-(4-Cyano-3-(trifluoromethyl)phenyl)-3-(4-cyanophenoxy)-2-hydroxy-2-methylpropanamide]	agonists of AR	do not stimulate or inhibit	do not stimulate or inhibit	do not stimulate or inhibit	inhibited the proliferation	–	–	–	–	–	–
C[C@](O)(COc1ccc(C#N)cc1)C(=O)Nc1ccc(C#N)c(Cl)c1 [Formula VIII, (S)-N-(3-chloro-4-cyanophenyl)-3-(4-cyanophenoxy)-2-hydroxy-2-methylpropanamide]	agonists of AR	do not stimulate or inhibit	do not stimulate or inhibit	do not stimulate or inhibit	inhibited the proliferation	failed to activate	failed to alter	failed to activate	failed to alter	did not induce	failed to alter
